# Patent US6790958B2, “Purine inhibitors of cyclin dependent kinase 2 & IKBA” (priority 1996, dated 2004)
# Tests used:
# [1] = tested on: Ovcar human ovarian Carcinoma; assay: Cell proliferation assay, OvCar; type: cell-based; details: OvCar cells
# Method: (§1) Early passage rat aortic smooth muscle cells (CV Therapeutics Cell repository) were seeded in 48 well dishes (Falcon, […]) at a density of 20,000 cells/ml of DME containing 5% heat inactivated bovine serum. The cells were incubated in a standard tissue culture incubator for 48 hr. The medium was aspirated and the wells were replenished with 0.2 ml of fresh medium. Compounds of this invention were added at concentrations ranging from 100 to 0.37 μg/ml. After 48 hr incubation, the medium was aspirated and the cultures were treated with 0.2 ml of saline 0.25 μl of phenozine methosulfate solution containing MTS (Cell Titer 96® Aqueous Non-radioactive cell proliferation assay kit, Catalog # G 5430, Promega, 2800 Woods Hollow Road, Madison, Wis. 53711-5399).
# (§2) Similar assays were performed using the following cell lines; P388—mouse lymphoid neoplasm; L1210—mouse lympheytic leukemia; Caco2 human colon adenocarcinoma; MCF7 human breast adenocarcinoma; PupVSMC rat neonatal aortic smooth muscle cells; Ovcar human ovarian Carcinoma; Pancl human pancreatic adenocarcinoma; and HUVEC human umbilical cord endothelial cells.
# [2] = tested on: Caco2 human colon adenocarcinoma; assay: Cell proliferation assay, Caco2; type: cell-based; details: Caco2 cells
# Method: as §1, §2
# [3] = tested on: L1210 mouse lympheytic leukemia; assay: Cell proliferation assay, L1210; type: cell-based; details: L 120 cells
# Method: as §1, §2
# [4] = tested on: Pancl human pancreatic adenocarcinoma; assay: Cell proliferation assay, Panc1; type: cell-based; details: Panc 1 cells
# Method: as §1, §2
# [5] = tested on: PupVSMC rat neonatal aortic smooth muscle cells; assay: Cell proliferation assay, PupVSMC; type: cell-based
# Method: as §1, §2
# [6] = tested on: MCF7 human breast adenocarcinoma; assay: Cell proliferation assay, MCF7; type: cell-based; details: MCF7 cells
# Method: as §1, §2
# [7] = tested on: P388 mouse lymphoid neoplasm; assay: Cell proliferation assay, P388; type: cell-based; details: P388 cells
# Method: as §1, §2
# [8] = tested on: rat carotid artery; assay: Neointima formation following balloon angioplasty, rat carotid artery model; type: in vivo; details: 5 mg/mL, acute local delivery, 14 days after injury, treated vs untreated segment
# From the text: In this example, the left common carotid arteries of adult male rats (n=10 per experimental group) were surgically injured using a Fogarty arterial embolectomy catheter. Immediately after injury, the common carotid artery was bisected with a vascular clamp, thereby establishing an untreated and treated segment. A drug delivery catheter was then inserted into the distal half of the common carotid. After drug delivery, the catheter was removed and excess drug was washed out by removing the vascular clamp and re-establishing blood flow before closing the artery. The animals were allowed to recover for 14 days before harvesting the common carotid artery. The harvested tissue was sectioned and the neointimal area was digitized and measured with a computer planimetery system. For each animal, 15 measurements were averaged for the untreated segment and 15 for the treated. {2-[(2-aminoethyl)amino]-9-(methylethyl)purin-6-yl}[(4-chlorophenyl)methyl]amine was administered at a dose of 5 mg/mL reducing the neointimal area about 90% in comparison to the 6% reduction of saline alone.
SMILES,"IC50 (μg/ml) for Inhibition of Cell Proliferation, OvCar [1] [µg/mL]","IC50 (μg/ml) for Inhibition of Cell Proliferation, Caco2 [2] [µg/mL]","IC50 (μg/ml) for Inhibition of Cell Proliferation, L 120 [3] [µg/mL]","IC50 (μg/ml) for Inhibition of Cell Proliferation, Panc 1 [4] [µg/mL]","IC50 (μg/ml) for Inhibition of Cell Proliferation, PupVSMC ([5]; PupVSMC cells, Table 8) [µg/mL]","IC50 (μg/ml) for Inhibition of Cell Proliferation, MCF7 [6] [µg/mL]","IC50 (μg/ml) for Inhibition of Cell Proliferation, P 388 [7] [µg/mL]",reduction of the neointimal area [8],"inhibitory activity, Pup VSMC ([5]; Rat neonatal aortic smooth muscle cells, Table 9, the values are: IC50) [µg/mL]"
CC(C)n1cnc2c(Nc3ccc(-c4ccccc4)cc3)nc(N(CCO)CCO)nc21 [2-diethanolamino-6-(4-phenylanilino)-9-isopropylpurine],7.0,0.5,4.0,4.0,1.0,4.0,1.0,,
CC(C)n1cnc2c(NCc3ccc(Cl)cc3)nc(NCCN)nc21 [{2-[(2-aminoethyl)amino]-9-(methylethyl)purin-6-yl}[(4-chlorophenyl)methyl]amine],,,,,,,,about 90%,0.1
